Laboratory results as given in patent US20240350432A1, “CENTRAL NERVOUS SYSTEM MODULATORS AS COVID-19 THERAPEUTICS” (priority 2023, published 2024).
Entries after “also recorded” stand apart in the source; their conditions may differ.

How the values were obtained:
Assay type in all cases: in vivo, mice
[1] = tested on: myelin of the pons and medulla; test: Black-Gold II Myelin staining, semi-qualitative myelination ranking
GFAP = GFAP immunofluorescence (reactive astrocytes), mean FL intensity; conditions: for mean GFAP FL intensity with progression of COVID-19 infection (time post-inoculation): COVID-19 positive groups, 3, 6, 10 days
pons and medulla = test: Cresyl violet staining, semi-qualitative morphology ranking; conditions: COVID-19 positive; for cresyl violet morphological rank vs (−) control: rank 1-3
IBA1 = IBA1 immunofluorescence (microglia), mean FL intensity; conditions: for mean IBA1 FL intensity with progression of COVID-19 infection (time post-inoculation): COVID-19 positive groups, 3, 6, 10 days
[2] = COVID-19 positive, 6 days post-inoculation
[3] = COVID-19 positive, 3 days post-inoculation

SMILES | Black-Gold II myelination ranking [1, 2] | Black-Gold II myelination ranking across time points post-inoculation ([1]; regardless of COVID-19 status) | mean GFAP FL intensity with progression of COVID-19 infection (time post-inoculation) (GFAP) | preventative effect in COVID-19 induced neuroinflammation (GFAP and IBA1 FL intensity trends) (GFAP; respiratory centers of the brain) | cresyl violet morphological rank vs (−) control (pons and medulla; 3 days post-inoculation) | cresyl violet morphological rank vs saline treatment (pons and medulla; 6 days post-inoculation) | cresyl violet morphological rank vs (−) control (pons and medulla; 6 days post-inoculation) | cresyl violet morphological rank vs saline treatment (pons and medulla; 10 days post-inoculation) | mean IBA1 FL intensity with progression of COVID-19 infection (time post-inoculation) (IBA1) | Black-Gold II myelination ranking [1, 3] | Black-Gold II myelination ranking vs (−) control ([1]; COVID-19 positive, 10 days post-inoculation) | COVID-19 related changes in myelination, overall finding ([1]; respiratory centers of the brain, listed as Memantine) | GFAP FL intensity nonlinear fit over time, Best Fit (GFAP; COVID-19 positive groups) | cresyl violet morphological rank vs (−) control (pons and medulla; 10 days post-inoculation) | IBA1 FL intensity nonlinear fit over time, Best Fit (IBA1; COVID-19 positive groups) | FL intensity vs saline and ifenprodil treated groups (FIG. 6B) (IBA1; [3]) | mean IBA1 FL intensity, COVID-19 positive vs negative group of same treatment (IBA1; sacrificed 10 days post-virus inoculation)
CC(C(O)c1ccc(O)cc1)N1CCC(Cc2ccccc2)CC1 (stereo not shown) [ifenprodil] | increased myelination ranking | no differences; also recorded: no significant difference | significantly changed | did not have a preventative effect | no difference in morphological rank | increases morphological rank | increase in rankings | improve the morphological rank | significantly changed | – | – | – | – | – | – | – | –
CC12CC3CC(C)(C1)CC(N)(C3)C2 [memantine] | decreased myelination rankings | – | no change; also recorded: increasing time point was not associated with increasing mean GFAP FL intensity | – | – | – | significantly lower than the negative control | improve the morphological rank | increasing time point was not associated with decreasing mean IBA1 FL intensity; also recorded: no change | decreased myelination rankings | not significantly different | signs of demyelination | Horizontal Line | morphology rankings similar to the negative control groups; also recorded: no longer a difference in morphological rank | Horizonal Line | decreased expression of GFAP; also recorded: slightly lower | significantly decreased; also recorded: slightly lower
